What was measured:
[1] = tested on: Deinococcus strain MC2-2A; details: 2 hours incubation, minimum concentration with loss of one log in relation to the control
Experimental: (§1) This method enables evaluation of the micro-organism sensitivity to ethanol. The test is carried out at 45° C. (Thermophilic strains). Ethanol bactericidy is determined with ethanol added at: • T0, • exponential phase, • stationary phase.
(§2) Ethanol Bactericidy at Exponential and Stationary Phases Test:
(§3) From a pre-culture in stationary phase in an enriched culture medium, for each ethanol content to be tested, 5 mL of Complex medium Glucose is seeded at 1% v/v.
(§4) Complex Medium Glucose contains: peptone 2 g/L, yeast extract 5 g/L and glucose 10 g/Lin osmosed water: solution sterilized by autoclaving (15 minutes at 120° C.). To this solution are added the following solutions: MOPS buffer solution (10×) pH7 [acid MOPS 400 mM, NH4Cl 200 mM, NaOH 100 mM, KOH 100 mM, CaCl2 5 μM, Na2SO4 2.76 mM, MgCl2 5.28 mM]; micronutrients (10000×) [[…] 300 mM, H3BO3 4 mM, CoCl2 0.3 mM, CuSO4 0.1 mM, MnCl2 2.5 mM, ZnSO4 0.1 mM]; FeCl3(100×) 2 mM in C6H5Na3O7 20 mM; K2HPO4 1 g/L: solutions sterilized by filtration (0.2 μm).
(§5) A follow-up of growth is carried out using the control culture (no ethanol add neither at exponential phase nor at stationary phase). OD is read at 600 nm using a spectrophotometer (UV Light XS5, SECOMAM).
(§6) Once the exponential growth phase (optical density of 0.5 at 600 nm), or once the stationary phase (plateau), is reached, the solvent is added. The content tested is 0 to 20%. Then, cultures are incubated during 2 hours.
(§7) At the end of the incubation period and for each ethanol content tested, a count is taken to assess the influence of the ethanol on the strain.
(§8) Count: At the end of incubation, and for each concentration in solvent, 200 μL of culture are transferred onto another microplate and are diluted in cascade (dilutions at 1/10 over 9 wells). The dilution culture medium is an enriched medium.

[2] = tested on: Deinococcus strain M13-1A; details: ethanol added at exponential phase, 2 hours incubation, minimum concentration with loss of one log in relation to the control
Experimental: as §1, §2, §3, §4, §5, §6, §7, §8

[3] = tested on: Deinococcus strain MC2-2A; details: ethanol added at T0, 45° C., aerobiosis, Complex medium Glucose, minimum concentration with total growth inhibition
Experimental: as §1
(§9) For ethanol bactericidy at T0, ethanol percentages between 0 to 10% are tested.
(§10) From a pre-culture in stationary phase in an enriched culture medium, for each ethanol content to be tested, 200 μl of Complex medium Glucose is seeded at 1% v/v.
as §4
(§11) The test is performed in 96 wells microplates in aerobiosis. Ethanol evaporation is avoided using a sterile impermeable film.
(§12) The reading of the result is done by naked eye.

[4] = tested on: Deinococcus strain M13-1A; details: ethanol added at T0, 45° C., aerobiosis, Complex medium Glucose, minimum concentration with total growth inhibition
Experimental: as §1, §9, §10, §4, §11, §12

For `CCO` [Ethanol, ethanol], the “Ethanol Bactericidy Exponential phase” value ([1]; ethanol added at exponential phase) was 15%, the “Ethanol Bactericidy Stationary phase” value ([1]; ethanol added at stationary phase) was 15% and the “Ethanol Bactericidy Exponential phase” value [2] was 5%. The “Ethanol Bactericidy T0” value [3] was 5% and the “Ethanol Bactericidy T0” value [4] was 2.5%.

— US8728777B2, “High performance metabolic bacteria” (Deinove, priority 2009, dated 2014)
